Data: ChEMBL document CHEMBL1799982, “Synthesis, protein kinase inhibitory potencies, and in vitro antiproliferative activities of meridianin derivatives” (J Med Chem, 2011)

How the values were obtained:
SH-SY5Y = assay: Antiproliferative activity against human SH-SY5Y cells by MTS reduction assay
[1] = Antiproliferative activity against human primary fibroblasts after 48 hrs by resazurin reduction test; format: cell-based; settings: Fibroblast
[2] = biological target: Dual specificity tyrosine-phosphorylation-regulated kinase 1A (Rattus norvegicus, UniProt Q63470); assay: Inhibition of rat recombinant GST-tagged DYRK1A using myelin protein as substrate and [gamma32]-ATP after 30 mins by scintillation counting
DU-145 = assay: Antiproliferative activity against human DU145 cells after 48 hrs by resazurin reduction test; format: functional, cell-based; settings: DU-145, 48 h
HT-22 = assay: Antiproliferative activity against mouse HT22 cells by MTS reduction assay
IMR-32 = assay: Antiproliferative activity against human IMR32 cells by MTS reduction assay
PA-1 = assay: Antiproliferative activity against human PA1 cells after 48 hrs by resazurin reduction test; format: functional, cell-based; settings: PA-1, 48 h
[3] = biological target: Dual specificity protein kinase CLK1 (Homo sapiens, UniProt P49759)
[4] = Inhibition of pig brain CK1 delta/epsilon using RRKHAAIGpSAYSITA as substrate; parameters: species or system Sus scrofa
[5] = biological target: Cyclin-dependent kinase 5/CDK5 activator 1 (Homo sapiens, UniProt Q00535); assay: Inhibition of human recombinant CDK5/p25 using Histone H1 and [gamma32]-ATP after 30 mins by scintillation counting; format: protein-complex assay
PC-3 = assay: Antiproliferative activity against human PC3 cells after 48 hrs by resazurin reduction test; settings: PC-3, 48 h
MCF7 = assay: Antiproliferative activity against human MCF7 cells after 48 hrs by resazurin reduction test; settings: MCF7, 48 h
[6] = biological target: Glycogen synthase kinase-3 (Sus scrofa, UniProt B2LUN4+I6LNT8); assay: Inhibition of pig brain GSK-3alpha/beta using YRRAAVPPSPSLSRHSSPHQSpEDEEE as substrate

Chain of Dual specificity protein kinase CLK1 (P49759 whole entry): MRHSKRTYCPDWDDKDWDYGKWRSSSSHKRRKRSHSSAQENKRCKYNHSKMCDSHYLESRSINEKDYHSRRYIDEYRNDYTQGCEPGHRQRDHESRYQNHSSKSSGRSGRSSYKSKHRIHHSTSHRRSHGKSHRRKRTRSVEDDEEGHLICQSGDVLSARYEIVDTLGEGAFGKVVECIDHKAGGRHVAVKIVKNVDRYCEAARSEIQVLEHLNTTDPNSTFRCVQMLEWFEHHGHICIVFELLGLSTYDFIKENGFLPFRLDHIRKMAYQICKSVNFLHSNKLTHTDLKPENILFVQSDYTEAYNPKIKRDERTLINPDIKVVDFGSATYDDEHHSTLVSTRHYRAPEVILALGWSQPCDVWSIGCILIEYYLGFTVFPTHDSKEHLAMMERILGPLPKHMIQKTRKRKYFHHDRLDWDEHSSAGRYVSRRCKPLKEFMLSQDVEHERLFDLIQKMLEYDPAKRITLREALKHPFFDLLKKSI
Chain of Cyclin-dependent kinase 5/CDK5 activator 1 (Q00535 whole entry): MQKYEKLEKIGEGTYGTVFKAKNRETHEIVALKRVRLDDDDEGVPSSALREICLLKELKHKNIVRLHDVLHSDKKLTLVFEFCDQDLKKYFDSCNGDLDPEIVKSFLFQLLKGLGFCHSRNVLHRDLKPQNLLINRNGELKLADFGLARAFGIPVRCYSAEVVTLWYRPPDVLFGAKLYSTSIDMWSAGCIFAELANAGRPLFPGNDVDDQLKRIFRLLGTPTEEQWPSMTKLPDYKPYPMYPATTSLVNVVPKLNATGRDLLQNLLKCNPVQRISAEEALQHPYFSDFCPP
Chain of Cyclin-dependent kinase 5/CDK5 activator 1 (Q15078 whole entry, further chain): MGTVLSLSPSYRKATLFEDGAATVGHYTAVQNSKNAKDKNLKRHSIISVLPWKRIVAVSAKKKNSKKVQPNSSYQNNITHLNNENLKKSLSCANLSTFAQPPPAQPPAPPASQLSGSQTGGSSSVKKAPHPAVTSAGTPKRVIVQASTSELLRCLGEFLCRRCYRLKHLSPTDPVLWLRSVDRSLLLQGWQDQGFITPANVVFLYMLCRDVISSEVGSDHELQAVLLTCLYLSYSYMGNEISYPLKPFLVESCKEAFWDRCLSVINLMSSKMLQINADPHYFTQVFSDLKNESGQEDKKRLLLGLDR

Row | Compound | IC50 (SH-SY5Y) [µM] | IC50 [1] [µM] | IC50 [2] [µM] | IC50 (DU-145) [µM] | IC50 (HT-22) [µM] | IC50 (IMR-32) [µM] | IC50 (PA-1) [µM] | IC50 [3] [µM] | IC50 [4] [µM] | IC50 [5] [µM] | IC50 (PC-3) [µM] | IC50 (MCF7) [µM] | IC50 [6] [µM]
1 | CC(=O)Nc1ccc(-c2cnc(N)nc2-c2c[nH]c3cc(Br)ccc23)cc1 | > 10 | 24 | 3.1 | 20 | > 10 | > 10 | 12 | 0.53 | 8.1 | > 10 | 14 | > 10 | 1.6
2 | CC(=O)Nc1ccc(-c2cnc(N)nc2-c2c[nH]c3c(Br)cccc23)cc1 | 25 | 8 | 0.19 | 13 | > 25 | 25 | 3 | 0.087 | > 10 | 7.5 | 5 | > 25 | 2.2
3 | Nc1ncc(-c2ccc(C(F)(F)F)cc2)c(-c2c[nH]c3c(Br)cccc23)n1 | > 10 | 14 | 1.25 | 18 | > 10 | > 10 | 17 | 1.5 | > 10 | > 10 | 8 | > 10 | 8.5
4 | COc1cccc(-c2cnc(N)nc2-c2c[nH]c3c(Br)cccc23)c1 | > 10 | 31 | 0.85 | 33 | > 10 | > 10 | 13 | 0.87 | 4.2 | > 10 | 29 | > 10 | > 10
5 | Nc1ncc(I)c(-c2c[nH]c3cccc([N+](=O)[O-])c23)n1 | > 10 | 5 | 9.1 | 5.4 | > 10 | > 10 | 3.3 | 7.1 | > 10 | > 10 | 7 | > 10 | > 10
6 | Nc1ncc(I)c(-c2c[nH]c3cc(Br)ccc23)n1 | 3.2 | 3.5 | 0.034 | < 1 | 5.1 | 3.8 | < 1 | 0.032 | 0.7 | 0.68 | 2.9 | 5.2 | 1.1
7 | Nc1ncc(I)c(-c2c[nH]c3c(Br)cccc23)n1 | 8 | 10 | 0.039 | 4.2 | 12 | 7.3 | 2 | 0.042 | 1.6 | 2.1 | 15 | 17 | 4
8 | CC(=O)c1ccc(-c2cnc(N)nc2-c2c[nH]c3cc(Br)ccc23)cc1 | 0.4 | < 0.6 | > 10 | < 0.6 | 2.5 | 0.33 | < 0.6 | 1.8 | > 10 | > 10 | < 0.6 | 1 | 2
9 | CC(=O)c1ccc(-c2cnc(N)nc2-c2c[nH]c3c(Br)cccc23)cc1 | > 10 | 18.4 | 0.29 | 5.7 | > 10 | > 10 | 0.8 | 0.38 | > 10 | > 10 | 3.6 | > 10 | 4.5
